According to patent publication US6107104A, “Modulators of anchoring protein function” (ICOS Corporation, priority 1996, dated 2000):
pIC50: −log10 of the molar value. Blank lines part the entries; values can stand above or below the substance they belong to. Ends that are not written are not given here.

What was measured:
RII = experiment: ELISA and modified ELISA, AKAP 79 binding to immobilized RII
Method: (§1) Specifically, in the first method, recombinant CaN A, expressed as described above, was added to wells of Immulon plates (Dynatech) in a 35 mM sodium bicarbonate/15 mM sodium carbonate buffer, pH 9.6. Proteins bound to the surface of the wells by plastic/protein interaction. As a positive control, RII, and a negative control, bovine serum albumin (BSA) were separately and similarly captured in individual wells and assayed in this method. Nonspecific sites in the wells were blocked with a buffer containing 2.5% milk in 50 mM sodium citrate and 145 mM sodium chloride. Full length TRX-AKAP 79 was added in a final volume of 100 μl and after up to 2 hours incubation, free and non-specific proteins were removed with several washes with PBS/0.5% Tween 20. A mouse anti-AKAP 79 monoclonal antibody, generated against recombinant AKAP 79, was added to each well, followed by addition of a horse radish peroxidase (HRP)-conjugated goat anti-mouse antibody. HRP substrate tetramethylbenzidine (TMB) was added and absorbance at 450 nm determined using a Dynatech 96 well plate reader.
(§2) In the modified ELISA, standard ELISA techniques were employed except that HRP-conjugated streptavidin was used to detect bound biotinylated AKAP 79 instead of an anti-AKAP 79 monoclonal antibody. Briefly, after incubation of immobilized CaN A with biotinylated AKAP 79, HRP-conjugated streptavidin was added for 30 minutes. Unbound protein was removed with multiple washes of PBS/0.05% Tween 20. Bound streptavidin was detected with HRP substrate TMB and absorbance measured at 450 nm using a Dynatech 96 well plate reader. As in the ELISA described above, RII was immobilized and assayed as a positive control, and BSA as a negative control.

CaN A = target: T1, CaN A (Rattus norvegicus, UniProt P63329); experiment: ELISA and modified ELISA, AKAP 79 binding to immobilized CaN A
T1 construct: the deletion mutant form of CaN A is used in the assays described above in place of full length CaN A; made in house; host or cells: Sf9 cells (baculovirus); construct from Vollum Institute
Method: Two different capture methods were used. In one method, CaN A was first captured on plates by passive coating, AKAP 79 or biotinylated AKAP 79 was added, and complex formation detected by either ELISA or by streptavidin-HRP. In another method, rabbit anti-mouse antibodies were first captured on plates, mouse anti-TRX antibodies added and captured, and TRX-AKAP 79 added and captured. This method was similar to the capture method used for AKAP 79/^3 H-RII SPA. Biotinylated CaN A was then added, and the complex detected by streptavidin-HRP.
as §1
as §2, with “Unbound protein was removed with multiple washes of PBS/0.05% Tween 20.” left out, “As in the ELISA described above, RII was immobilized and assayed as a positive control, and BSA as a negative control.” left out

CaN420 = target: T2, CaN420 (Rattus norvegicus, UniProt P63329); experiment: CaN420 phosphatase activity toward 32P RII peptide substrate; type: biochemical; conditions: calmodulin omitted
T2 construct: a truncated, Ca^2+ /calmodulin independent constitutively active form of CaN; made in house; host or cells: Sf9 cells (baculovirus)
Method: (§3) To determine whether AKAP 79 peptide binding inhibits CaN activity, CaN phosphatase activity was assayed in the presence of recombinant AKAP 79. Briefly, recombinant AKAP 79 was expressed in E. coli as described in Carr et al., J. Biol. Chem., 267:16816-16823 (1992), incorporated herein by reference. CaN and the constitutively active truncation mutant CaN420 (a truncated, Ca^2+ /calmodulin independent constitutively active form of CaN (Perrino et al., J. Biol. Chem., in press)) were expressed in Sf9 cells and purified on calmodulin-Sepharose as described in Perrino et al., J. Biol Chem., 267:15965-15969 (1992), incorporated herein by reference. Phosphatase activity toward ^32 P RII peptide substrate was measured as described in Perrino et al., supra. CaN (30 nM), calmodulin (100 nM) and ^32 P RII peptide (22 μM) were incubated with AKAP 79 protein and AKAP 79 peptide (SEQ ID NO:1-amino acids 81-102) over the range of concentrations indicated in FIG. 1B. Calmodulin was omitted from CaN420 assays. ^32 P released from the substrate was measured in triplicate samples in three separate experiments by scintillation counting. The inhibition constant (Ki) of recombinant AKAP 79 for CaN was determined by linear regression analysis of data. Ki values for AKAP 79 peptide were estimated by determining the IC50 using a fixed substrate concentration at Km (42 μM).

CaN = target: T3, CaN (Rattus norvegicus, UniProt P63329); experiment: CaN phosphatase activity toward 32P RII peptide substrate; type: biochemical; conditions: Ca2+/calmodulin dependent CaN 30 nM, 32P RII peptide substrate
T3 construct: made in house; host or cells: Sf9 cells (baculovirus)
Method: as §3

[1] = tested on: IL-2 transcription in Jurkat T cell line (NFATZ); experiment: NFATZ Jurkat IL-2 promoter lacZ β-gal FACS assay; type: cell-based
Source text: IL- 2 transcription was studied following activation with PMA and ionomycin. These two agents are known respectively to potentiate protein kinase C and calcium second messenger responses (including activation of CaN). Protein kinase C activates the Ras-Raf-1-Mek-MAP Kinase pathway that participates in induction of the nuclear component of NFAT. The increased calcium concentration activates calcineurin which, in turn, activates the cytoplasmic component of NFAT and allows translocation to the nucleus.
Each of the peptides was myristilated as described in Eichholtz et al., J. Biol. Chem., 268:1982-1986 (1993).
Incubation with forskolin/IBMX elevates intracellular cAMP concentrations (FIG. 4), thereby activating PKA. Finally, phorbol 12-myristate 13-acetate (PMA) (10 ng/ml) and ionomycin (2 μM) were added and incubations continued for 4 hr. Controls were incubated with PMA/ionomycin alone or forskolin/IBMX and PMA/ionomycin under conditions as described above. During the last 20 min of the PMA/ionomycin incubation, chloroquine (300 μM) was added to inhibit endogenous lysosomal β-gal activity. The cells were spun out and resuspended in 50 μl of culture medium to which 50 μl of fluorescein di-β-D-galactopyranoside (FDG) was added (0.1 mM final concentration; Molecular Probes). […] The lacZ β-gal activity was measured by flow cytometry configured for fluorescein analysis.

AKAP 79/RII binding = experiment: Scintillation proximity assay of TRX-AKAP 79/3H-RII binding; conditions: read-out: IC50 of inhibition of AKAP 79/RII binding
Source text: Initially, a thioredoxin TRX-AKAP 79 fusion protein expression plasmid was constructed. See, generally, LaVallie, et al., BIO/TECHNOLOGY 11:187-193 (1993). Briefly, a XhaI/HindIII thioredoxin fragment was subcloned into pUC 19 containing a lac Z gene and a tacZ promoter. The resulting plasmid was designated TRX F/S pUC19. In order to insert an AKAP 79 encoding sequence into TRX F/S pUC19, an NcoI site was created with an oligonucleotide (SEQ ID NO:32) having terminal SpeI and HindIII sequences. Following SpeI/HindIII digestion, the oligonucleotide was inserted into the vector and an NcoI/XhoI fragment encoding AKAP 79 was ligated in frame with the thioredoxin gene. The fusion protein was expressed in E. coli and immobilized on 96-well ScintiStrip plates (Wallac, Turbu, Finland) which contained a scintillator embedded in the solid support. […] When ^3 H-RII bound to AKAP 79, the label was brought sufficiently close to the support-embedded scintillator, resulting in emission detected in a MicroBeta scintillation counter.
The scintillation proximity assay (SPA) screening protocol described in Example 8 was employed to determine the ability of various chemicals to inhibit binding between AKAP 79 and ^3 H-RII. […] Percent binding was determined by the measuring the amount of radioactivity in each well compared to the amount of radioactivity in wells wherein only AKAP 79 and ^3 H-RII were introduced.

PKC = PKC activity assay with EGF receptor peptide substrate; type: biochemical
Method: In order to asses the ability of these peptides to modulate PKC activity, the following assay was performed in the presence and absence of AKAP 79 peptide fragments. PKC [50 nM dissolved in 50 mM tris-HCl (pH 7.4), 5 mM MgCl2 1.2 mM CaCl2, 1 mM DTT, 1 mM EGTA and 100 μg/ml PS] was incubated with EGF receptor peptide substrate (5 μM) at 30° C. for five minutes. Phosphorylation reaction was initiated by addition of 100 μM ^32 P-ATP (500 cpm/pmol) and the reaction allowed to proceed for ten minutes at 30° C. Aliquots of reaction mixture were removed and spotted into P81 filter paper and the reaction terminated by washing the filter paper with excess 75 mM phosphoric acid (three washes for three minutes each). After a final wash in ethanol, the p81 filters were dried and radioactivity was measured by liquid scintillation counting.

PKC/AKAP 79 interaction = experiment: PKC overlay assay; type: binding, rabbit
Method: In order to determine if the 75 kDa protein identified may be the bovine homolog of AKAP 79, the PKC overlay assay was used to probe AKAP 79 and related fragments. Briefly, proteins were separated by SDS-polyacrylamide electrophoresis (SDS-PAGE) and blotted to nitrocellulose following standard protocols. Samples were blocked in Blotto [1 mg/ml bovine serum albumin (BSA), 5% dry milk in Tris-buffered saline (TBS)] and incubated for one hour at room temperature in assay buffer [TBS containing 1 mg/ml BSA, 1.2 mM calcium, 1 mM EGTA, 20 μg/ml phosphatidylserine (PS), 2 μg/ml leupeptin, 2 μg/ml pepstatin and 3 μg/ml of partially purified rabbit brain PKC]. Bound PKC was detected with monoclonal antibody M7, which recognizes both PKCα and β, following standard chemiluminescent detection methods.

Substance: AKAP 79/M108: biotinylated AKAP 79 truncation, first 108 amino terminal residues deleted
recognition of immobilized RII (RII): specifically recognized

Substance: AKAP 79/Met159: biotinylated AKAP 79 truncation, first 159 amino terminal amino acids deleted
recognition of immobilized RII (RII): specifically recognized
binding to immobilized CaN A (CaN A): no specific binding

Substance: AKAP 79/Met247: biotinylated AKAP 79 truncation, first 247 amino terminal amino acids deleted
recognition of immobilized RII (RII): specifically recognized
binding to immobilized CaN A (CaN A): no specific binding

binding to immobilized CaN A (CaN A): bound
inhibition of CaN420 phosphatase activity (CaN420): non-competitive manner
inhibition of full-length CaN phosphatase activity (CaN): non-competitive manner
Substance: AKAP 79: recombinant anchoring protein AKAP 79 expressed in E. coli

Substance: Asp-Leu-Ile-Glu-Glu-Ala-Ala-Ser-Arg-Ile-Val-Asp-Ala-Val-Ile-Glu-Gln-Val-Lys-Ala-Ala-Gly-Ala-Tyr (DLIEEAASRIVDAVIEQVKAAGAY; also: myristoylated, place not given here) [myristilated Ht31 peptide, amino acids 493-515 of the full length Ht31 protein, myristilated]
reversal of forskolin/IBMX blockade of PMA/ionomycin induced β-gal activity ([1]; 100 μM myristilated peptide): completely reversed

inhibition of full-length CaN phosphatase activity (CaN): not an inhibitor
pIC50 (AKAP 79/RII binding): 7.30
Substance: Ht31 peptide: Ht31 peptide (SEQ ID NO:4), blocks anchoring protein binding to RII (DLIEEAAVSRIVDAVIEEVKAAGA) [reference compound]

Substance: myristilated AKAP 75 peptide: myristilated peptide of amino acids 81-108 of AKAP 75 (SEQ ID NO:8) (SIKRLVTRRKRSESSKQQKPFKAKLQSE; also: myristoylated, place not given here)
reduction of PMA/ionomycin induced β-gal activity ([1]; 10 μM in the medium): 40-50%

effect of incubation with CaM on inhibition of PKC (PKC; CaM 15 μM, excess Ca2+): prevented inhibition
type of inhibition of PKC activity (PKC; EGF receptor peptide as substrate): mixed inhibition
pIC50 (PKC; read-out: IC50 of inhibition of PKC activity): 5.70
Substance: peptide containing residues 31-52: synthetic peptide of residues 31-52 of AKAP 79 (KASMLCFKRRKKAAKALKPKAG; UniProt P24588 31-52, looked up, fragment)
block of PKC/AKAP 79 interaction (PKC/AKAP 79 interaction): blocked

pIC50 (AKAP 79/RII binding): 9.00
Substance: unlabeled RII: unlabeled RII regulatory subunit of PKA, reference inhibitor
